The assay is described as follows: Inhibition of NLRP3 in mouse J774 macrophages assessed as reduction in Bacillus anthracis lethal toxin induced cell death.

Among the data in BindingDB's records for doi:10.1021/acs.jmedchem.5b01091 (University of Manchester, 2016) are IC50 values, retold here.

In general, IC50 refers to the concentration at which inhibition is half-maximal. With `CC1(C)C(=O)C=C[C@]2(C)[C@H]3CC[C@@]4(C)[C@H](c5ccoc5)OC(=O)[C@H]5O[C@]54[C@]3(C)C=C[C@@H]12`, the IC50 amounted to 5 µM.
